Laboratory results from paper PMC3032781, “DNA Polymerase β as a Novel Target for Chemotherapeutic Intervention of Colorectal Cancer” (PLoS ONE, 2011).

Target: T1, Pol-β (Homo sapiens, UniProt P06746)
T1 construct: gene POLB; purified protein
Assay: strand-displacement synthesis on […]-labelled 63-mer F-DNA, denaturing gel
Assay type: biochemical
Settings: pH 7.5, 30 mM KCl, 8 mM MgCl2, 37 °C, 30 min; 5 nM Pol-β, 2 nM APE1 (pre-incision), 2.5 nM DNA

IC50: 5.3 µM
Substance: [5-(4-amino-6-iodo-2-oxo-5,6-dihydropyrimidin-1-yl)-3-hydroxy-oxolan-2-yl] methoxyphosphonic acid [NSC-124854]
